According to patent publication US11458212B2, “Molecular imaging of cancer cells in vivo” (H. Lee Moffitt Cancer Center and Research Institute, Inc., priority 2011, dated 2022):
“Also recorded” adds a separate entry of the source.

What was measured:
TLR2 [1] = target: T1, TLR2 (Homo sapiens, UniProt O60603); experiment: In vitro TLR2 functional bioassay (NF-κB luciferase, HEK293/hTLR2 cells); type: cell-based; design: host or cells: HEK293 stably transfected with pUNO-hTLR2, transiently transfected with the pNifty-Luc reporter; details: dose-response 0.001 ng/mL to 10 μg/mL; read-out: TLR2 Agonist Activity EC50
Source text: In Vitro TLR2 Functional Bioassay The in vitro TLR2 functional bioassay was developed and optimized for use in screening soluble compound libraries to identify both TLR2 agonists and antagonists. In this study, the TLR2 functional bioassay was used as a fast high throughput screening to identify TLR2 agonist ligands by measuring the inducing activity of NF-κB. HEK293/hTLR2 cells, highly overexpressing human TLR2, were used along with the parental HEK293, cells as a negative control. Cells were seeded at a density of 40,000 per well using a WellMate® Microplate dispenser (Thermo Fischer Scientific/Matrix) in black 96-well plates with opaque white wells (Perkin Elmer Wallac, Waltham, Mass.) and then incubated at 37° C. On day 2, the cells were transiently transfected with pNifty-Luc (InvivoGen), an NF-κB inducible reporter plasmid expressing the luciferase reporter gene (Zuany-Amorim, C., J., et al. Nat Rev Drug Discov, 2002. 1(10):797-807), using an optimized 4:1 ratio by volume of Fugene® HD Transfection Reagent (Roche Applied Science, Indianapolis, Ind.) to pNifty-Luc plasmid DNA (1 μg/mL). […] On day 4 after 24 hrs of peptide stimulation, luciferase induced activity by the induction of NF-κB was measured. Media was aspirated from the wells using an ELx405 Select plate washer (BioTek, Winooski, Vt.), 150 μg/mL D-luciferin (Gold Biotechnology, St. Louis, Mo.) was dispensed using the microplate dispensor; the plates were incubated at 37° C. for 5 min. The luminescence intensity was measured using the standard luminescence protocol on a Victor™ X4 plate-reader equipped with a plate stacker for readout of multiple plates at a time (PerkinElmer, Waltham, Mass.). For each in vitro TLR2 bioassay, at least three different experiments were performed in triplicate (n=3+). Data were analyzed with GraphPad Prism software and curves were generated with the appropriate nonlinear fit regression analysis.
The in vitro TLR2 functional bioassay was developed and optimized for use in high-throughput screening of soluble compound libraries to identify both TLR2 agonists and antagonists. The bioassay measures the induction of NF-κB signaling via TLR2 in HEK-293/hTLR2 cells and parental HEK-293 cells as a negative control. Cells were seeded at a density of 40,000 per well using a WellMate Microplate dispenser (Thermo Fisher Scientific/Matrix) in black 96-well plates with opaque white wells (PerkinElmer, Waltham, Mass.) and then incubated at 37° C. On day 2, the cells were transiently transfected with pNifty-Luc (InvivoGen, San Diego, Calif.), an NF-κB inducible reporter plasmid expressing the luciferase reporter gene[28] using an optimized 4:1 ratio by volume of FugeneHD Transfection Reagent (Promega, Madison, Wis.) to pNifty-Luc plasmid DNA (1 μg/mL). […] […] On day 4 after 24 h of peptide stimulation, luciferase induced activity by the induction of NF-κB was measured. Media was aspirated from the wells using an ELx405 Select CW plate washer (BioTek, Winooski, Vt.), 150 μg/mL D-luciferin (Gold Biotechnology, St. Louis, Mo.) was dispensed using the microplate dispensor; the plates were incubated at 37° C. for 5 min. The luminescence intensity was measured using the standard luminescence protocol on a Victor X4 Multilabel plate reader equipped with a plate stacker for readout of multiple plates at a time (PerkinElmer, Waltham, Mass.). […] Data were analyzed with GraphPad Prism software and curves were generated with the appropriate nonlinear fit regression analysis.

TLR2 [2] = target: T1, TLR2; experiment: In cyto europium TRF competition binding assay; design: ATCC (SU.86.86 CRL-1837, Capan-I HTB-79); SU.86.86 and Capan-I express TLR2 endogenously
Description: Europium TRF binding assays were performed as previously described with slight modifications using 3 cell lines that express TLR2: HEK-293/hTLR2, SU.86.86, and Capan-I.[23a, 23d, 29] The Capan-I and SU.86.86 cells were plated in 96-well black plates with white opaque wells (PerkinElmer); while the HEK-293/hTLR2 cells were plated on 96-well poly-D-lysine coated plates (Sigma-Aldrich) to aid in the attachment of these cells to the plate. Cells were grown in the 96-well plates for 2 days reaching approximately 80% confluency. Both types of plates were evaluated for nonspecific binding and background signal.
Competition binding assays were performed to test the TLR2 binding specificity of the test ligands using 2 cell lines: HEK-293/hTLR2 and SU.86.86. Cells were grown in 96-well plates for 2 days reaching approximately 80% confluency. On the day of the experiment, the cell culture media was aspirated and 50 μL of non-labeled test ligand was added in a series of decreasing concentrations (1 μM to 0.01 nM) followed by 50 μL of the competing Eu-labeled ligand 10 at a fixed concentration of 90 nM. Cells were incubated with labeled and unlabeled ligands for 1 h at 37° C. […] Cells were incubated for 30 min at 37° C. prior to reading. The plates were read on PerkinElmer VICTOR X4 Multilabel reader using the standard europium TRF protocol. […]

[3] = test system: TLR2 expressing tumor xenografts (SU.86.86 cells); experiment: In vivo TLR2 selectivity / tumor retention fluorescence imaging; design: species or system nude mice; details: for retention of fluorescence signal in tumor: 24 h post injection
Description: Female athymic nude mice 6-8 weeks old (Harlan) bearing human pancreatic tumor xenografts consisting of SU.86.86 cells on the right flank were used for this study. Mouse weights and tumor volumes were determined using caliper measurements and the formula: volume (mm3)=(length×width^2)/2. Images were acquired when the tumors reached an average size of 500 mm^3. For the blocked group, a co-injection of 100 nmol/kg of the fluorescently labeled compound 13 plus 2 μmol/kg Pam2CSK4 (a 20-fold excess) was administered via tail vein injection; for the unblocked group, 100 nmol/kg 13 was administered. Fluorescence images were acquired at time 0 and 24 h using the Caliper Xenogen IVIS200 system (PerkinElmer) with the 710-760 nm excitation and 810-875 nm emission filter set. The fluorescence was quantified using Living Image software, in which the quantified signals were corrected for both instrument and mouse background subtractions. The quantified fluorescence was then plotted using GraphPad Prism software and underwent statistical analysis using Student's t-test.
For further confirmation of ligand 13 specificity for TLR2, ex vivo fluorescence imaging and histological analyses were performed on the tumors. For histological analyses the samples were fixed in 10% formalin solution, processed, embedded, sectioned and either H&E stained for the presence of tumor or underwent IHC staining using TLR2 antibody (Abcam #ab24192).

[4] = test system: TLR2 expressing tumor xenografts (SU.86.86 cells); experiment: as above; design: species or system nude mice
[5] = test system: orthotopic pancreatic tumors; experiment: FL guided intraoperative surgical removal of orthotopic pancreatic tumors; type: in vivo, mice; details: 24 h post-injection, data not shown
Source text: Improved survival rates for pancreatic cancer are associated with the complete surgical resection of tumor resulting in a tumor-free margin (R0). New methods employing intraoperative fluorescence (FL) guided tumor detection could lead to increased R0 margins and improved survival. We have reported Toll-like receptor 2 (TLR2) as a bona fide cell-surface marker for pancreatic adenocarcinoma. We then developed a high-affinity TLR2 binding ligand conjugated to a near-infrared (NIR) fluorescent dye, IR800CW, as a targeted molecular imaging probe for the intraoperative detection of surgical margins. To evaluate the in vivo pharmacokinetics and biodistribution of compound 13, FL imaging was performed on multiple optical imaging systems (PerkinElmer IVIS 200 and FMT2500XL, and ART Optix MX3) using TLR2 expressing pancreatic tumor xenograft mouse models (subcutaneous and orthotopic). […] Prior to surgery, the orthotopic pancreatic tumor volumes were monitored weekly and measured in vivo by 3D ultrasound imaging. […]

T1 sequence (O60603 21-784): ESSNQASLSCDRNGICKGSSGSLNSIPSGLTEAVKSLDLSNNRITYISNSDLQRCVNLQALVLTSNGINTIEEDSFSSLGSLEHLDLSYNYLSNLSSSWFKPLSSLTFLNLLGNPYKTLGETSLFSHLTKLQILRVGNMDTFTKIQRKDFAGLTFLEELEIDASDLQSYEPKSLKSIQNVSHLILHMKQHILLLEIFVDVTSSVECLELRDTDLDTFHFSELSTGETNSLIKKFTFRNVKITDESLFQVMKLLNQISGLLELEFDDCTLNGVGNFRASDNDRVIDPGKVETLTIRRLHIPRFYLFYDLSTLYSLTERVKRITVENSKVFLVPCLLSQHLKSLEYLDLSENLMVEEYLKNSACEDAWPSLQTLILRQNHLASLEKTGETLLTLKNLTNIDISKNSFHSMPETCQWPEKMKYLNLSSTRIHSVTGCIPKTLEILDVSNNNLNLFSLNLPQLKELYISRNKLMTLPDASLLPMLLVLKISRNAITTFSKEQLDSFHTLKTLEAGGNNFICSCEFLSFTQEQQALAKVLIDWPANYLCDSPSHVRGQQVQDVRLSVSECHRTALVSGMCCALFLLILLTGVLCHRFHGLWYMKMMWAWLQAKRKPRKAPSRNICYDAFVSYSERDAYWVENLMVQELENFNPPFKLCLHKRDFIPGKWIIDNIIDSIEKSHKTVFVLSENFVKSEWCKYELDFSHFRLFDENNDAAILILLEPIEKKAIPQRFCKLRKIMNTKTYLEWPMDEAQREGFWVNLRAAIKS
T1 sequence (Q9Y2C9 32-796 partner): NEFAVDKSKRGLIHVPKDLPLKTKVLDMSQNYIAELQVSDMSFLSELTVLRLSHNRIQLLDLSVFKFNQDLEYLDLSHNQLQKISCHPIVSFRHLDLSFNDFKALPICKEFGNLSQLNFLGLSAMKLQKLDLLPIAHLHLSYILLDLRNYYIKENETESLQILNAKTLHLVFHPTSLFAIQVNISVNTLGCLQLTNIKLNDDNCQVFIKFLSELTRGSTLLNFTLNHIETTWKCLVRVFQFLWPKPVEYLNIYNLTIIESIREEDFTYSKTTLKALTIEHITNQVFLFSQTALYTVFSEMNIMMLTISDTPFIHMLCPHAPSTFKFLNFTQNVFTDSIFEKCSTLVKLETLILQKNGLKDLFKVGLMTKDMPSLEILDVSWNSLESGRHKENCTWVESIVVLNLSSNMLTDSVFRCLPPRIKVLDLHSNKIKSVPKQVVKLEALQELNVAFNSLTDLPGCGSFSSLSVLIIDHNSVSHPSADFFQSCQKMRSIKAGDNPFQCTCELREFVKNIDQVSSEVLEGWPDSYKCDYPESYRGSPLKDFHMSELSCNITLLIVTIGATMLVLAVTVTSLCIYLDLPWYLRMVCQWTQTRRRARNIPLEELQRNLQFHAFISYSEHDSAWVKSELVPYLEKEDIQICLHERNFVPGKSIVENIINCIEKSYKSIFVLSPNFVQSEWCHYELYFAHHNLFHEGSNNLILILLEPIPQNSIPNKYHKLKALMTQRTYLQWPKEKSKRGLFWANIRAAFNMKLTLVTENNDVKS

CCCCCCCCCCCCCCCC(=O)OC[C@H](CSC[C@H](NC(=O)COCC(=O)NCCCOCCOCCOCCCNC(=O)CCSC1CC(=O)N(CCNC(=O)CCCCC[N+]2=C(/C=C/C3=C(Oc4ccc(S(=O)(=O)[O-])cc4)C(=C/C=C4/N(CCCCS(=O)(=O)O)c5ccc(S(=O)(=O)O)cc5C4(C)C)/CCC3)C(C)(C)c3cc(S(=O)(=O)O)ccc32)C1=O)C(=O)NCC(=O)N[C@H](CO)C(=O)NCCCOCCOCCOCCCNC(=O)COCC(N)=O)OC(=O)CCCCCCCCCCCCCCC (stereo partly drawn) [Compound 13, IRDye800CW-Mpr-PEGO-Cys(S-[2,3-bis(palmitoyl)oxy-(R)-propyl])-Gly-DSer-PEGO-NH2]
EC50 (TLR2 [1]): 34 nM
Ki (TLR2 [2]; SU.86.86 cells, 90 nM compound 11): 67 nM
Ki (TLR2 [2]; competitive binding assay, cell line not stated): 11 nM
mean tumor fluorescence unblocked / blocked ([3]; 24 h, 100 nmol/kg 13 ± 2 μmol/kg Pam2CSK4 (20-fold excess), n=8): 1.94 fold
effect of blocking with excess unlabeled ligand on tumor signal ([3]; 24 h, p<0.001): significantly decreased FL signal in the tumor; also recorded: significant reduction in the tumor fluorescence
retention of fluorescence signal in tumor [3]: Fluorescence signal was present in TLR2 expressing pancreatic tumor xenografts; also recorded: retention of fluorescence signal in the tumor
retention of fluorescence signal in tumor ([3]; listed as LiCor IRDye800CW/T-02 conjugate): retained in the tumor at 24 h post injection while the agent had cleared from the animal except for the kidneys
duration of retention in the SU.86.86 tumor ([4]; 10 nmol/Kg dosage): over 96 h
clearance from the kidney ([4]; mouse, in vivo): cleared from the kidney within days of the injection but was retained longer in the tumor
uptake in orthotopic pancreatic tumor xenografts ([4]; orthotopic): taken into and retained in orthotopic pancreatic tumor xenografts
duration of FL signal retention in TLR2 expressing tumor xenografts ([4]; post-injection, dose not stated): up to 96 h
intraoperative fluorescence detection of tumor [5]: intraoperative detection of pancreatic cancer were demonstrated
